Measured values taken from US7202024B2, “bbc3 Gene promoter and methods for identifying modulators of apoptosis and bbc3 gene expression using a bbc3 gene promoter” (Immunogen Inc., priority 2001, dated 2007).
Peptide text beside a SMILES is read from it. * marks the point of attachment. Cbz = O=C(OCc1ccccc1)*; CH2F = FC*

Columns and labels:
bbc3 mRNA [1] = assay: Northern blot of bbc3 mRNA in E1a/Ras/p53MER mouse fibroblast cell line; format: cell-based; conditions: p53-estrogen receptor fusion cells, 4-OHT 100 nM, 5 hours
Text: (§1) Northern blots were hybridized with a murine bbc3 cDNA probe, followed by re-hybridization with an actin probe.
Cell death induced by etoposide and other DNA-damaging drugs in murine fibroblasts is mediated, at least in part, by the p53 tumor suppressor (Levine, A. J., Cell 88:323–31 (1997); Vousden, K. H., Cell 103:691–4 (2000)).
(§2) All cell lines used were obtained from ATCC, unless otherwise noted. HeLa/Bcl-XL cells were generated by stable transfection of HeLa cells with a vector encoding a Flag-epitope tagged BCl-xL. Murine myeloid leukemia M1 cells containing a temperature sensitive p53-val135 mutant (M1p53ts), and E1A/ras transformed p53^−/−mouse embryonic fibroblasts containing a p53-estrogen receptor fusion, have been described previously (Vater, C. A., et al., Oncogene 13:739–48 (1996); Yonish-Rouach, E., et al., Nature 352:345–7 (1991)).
(§3) Total RNA was isolated from mouse thymocytes (RNeasy system, Qiagen). Poly(A)+RNA (FastTract system, Invitrogen) was prepared in all other experiments. 10 μg of total RNA or 3 μg of poly(A)+RNA per lane was denatured and separated by electrophoresis in 1% formaldehyde agarose gels. Northern blotting was performed following standard methods.

Bbc3 protein [2] = assay: Western blot of Bbc3 protein in HT29 cells; format: cell-based, human; conditions: for ability of serum to suppress Bbc3 protein levels: HT29 cells in serum, 50 μM LY294002, 10 μM PD98059, 30 μM AG1478 or 50 μM AG1024; for ability of serum to suppress Bbc3 protein levels / Bbc3 protein expression: 24 hrs; for Bbc3 protein expression: 100 ng/ml IGF-1, 50 ng/ml EGF or 25 ng/ml PDGF
Description: (§4) HT29 cells were incubated for one day in the absence of serum (−), and then incubated in media containing either serum, 100 ng/ml IGF-1, 50 ng/ml EGF, or 25 ng/ml PDGF, for 24 hrs. Bbc3 was detected by western blot analysis, followed by sequential probing of the blot with anti-Bax and anti-Bcl-xL antibodies.
HT29 cells were cultured as in FIG. 6B and then incubated for 24 hrs in media containing either serum, 100 ng/ml IGF-1, or 100 ng/ml IGF-1 in the presence of 50 μM LY294002 (added 1 hr prior to IGF-1). Bbc3 was detected by western blot analysis.
HT29 cells were grown in the presence of serum (lane 1), and then incubated for 24 hrs in the absence of serum, or in the presence of serum supplemented with 50 μMLY294002.
HT29 cells were incubated for one day in the absence of serum (−), and then incubated in media containing either serum, 50 ng/ml EGF, or 50 ng/ml EGF+30 nM AG1478, for 24 hrs. Bbc3 was detected by western blot analysis.
HT29 cells were cultured in the presence of serum for one day (+) and then incubated for 24 hrs with serum or without serum, or in the presence of serum supplemented with either 10 μM PD98059, 30 μM AG1478, or 50 μM AG1024. Bbc3 was detected by western blot analysis, followed by reprobing of the blot with anti-Bax.
(§5) A mouse monoclonal antibody, KM140, was made against a recombinant GST-Bbc3 fusion protein. The KM140 epitope was mapped to residues 73–76 by probing a blot with arrayed overlapping Bbc3 peptides (Research Genetics). Cells were plated at 3–10×10^6 cells per 100 mm dish in either serum containing (10% FBS), or serum free media (0% FBS, 0.1% BSA). Cell lysates were prepared, electrophoresed (100 to 200 μg per lane) on 4–20% polyacrylamide reducing gels, and analyzed by western blotting as described previously (Chittenden, T., et al., EMBO J. 14:5589–96 (1995)).

bbc3 mRNA [3] = assay: Northern blot of bbc3 mRNA in NIH3T3 cells; format: cell-based, murine; conditions: etoposide 50 μM, 6 hours
Description: as §1
To evaluate whether the activity of bbc3 might be under transcriptional control, the expression of bbc3 was examined in response to apoptotic stimuli likely to involve new mRNA/protein synthesis.
as §3

Bbc3 protein [4] = assay: Western blot of Bbc3 in serum-starved Jurkat cells; format: cell-based, human; conditions: without serum 24 hrs, z-VAD 100 μM
Text: (§6) Bbc3 and PARP were detected by western blot analysis.
(§7) Deprivation of serum is a strong pro-apoptotic stimulus for many cultured tumor cell lines, triggering cell death or sensitizing cells to other apoptotic stimuli. Thus, the effect of serum deprivation on bbc3 mRNA expression and Bbc3 protein levels was also examined, using a monoclonal antibody generated against recombinant human Bbc3. A striking increase in Bbc3 protein levels was observed upon serum deprivation in multiple human tumor cell lines (FIG. 5B), including cell lines that lack functional p53. […] Therefore, the induction of Bbc3 precedes caspase activation, and is not simply a response to the engagement of the cell death program.
as §5

PARP = assay: Western blot of PARP cleavage in serum-starved Jurkat cells; format: cell-based, human; conditions: without serum 24 hrs, z-VAD 100 μM
Text: as §6, §7, §5

GST-Bcl-xL = GST-Bcl-xL (Homo sapiens, UniProt Q07817); assay: Bcl-xL competition binding assay (ELISA, immobilized Bak BH3 peptide); conditions: competition with immobilized Bak BH3 peptide
Sequence of GST-Bcl-xL (Q07817 whole entry): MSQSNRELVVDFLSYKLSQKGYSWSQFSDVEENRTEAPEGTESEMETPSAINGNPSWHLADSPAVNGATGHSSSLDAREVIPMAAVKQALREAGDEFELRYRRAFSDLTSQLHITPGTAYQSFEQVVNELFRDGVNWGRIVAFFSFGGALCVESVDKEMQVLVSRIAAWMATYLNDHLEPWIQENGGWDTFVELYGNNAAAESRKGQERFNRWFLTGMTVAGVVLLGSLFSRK
Description: Binding of GST-Bcl-xL to an immobilized Bak BH3 peptide was measured by ELISA (triplicate samples, +S.D.), in the presence of the indicated concentrations of a competing synthetic Bbc3 BH3 or Bak BH3 peptide.
Cell lysates were prepared and co-immunoprecipitation assays were performed as described previously (Chittenden, T., et al., EMBO J. 14:5589–96 (1995)). The Bcl-xL competition binding assay was performed as previously described (Zhou, X. M., et al., J. Biol. Chem. 275:25046–51 (2000)), using synthetic BH3 peptides comprising residues 133–152 of Bbc3, and residues 70–89 of Bak.

Bax = assay: Western blot of Bax in HT29 cells; format: cell-based, human; conditions: serum-starved HT29 cells, 24 hrs; 100 ng/ml IGF-1 or 50 ng/ml EGF
Description: as §4, §5

Bcl-xL = assay: Western blot of Bcl-xL in HT29 cells; format: cell-based, human; conditions: serum-starved HT29 cells, 24 hrs; 100 ng/ml IGF-1 or 50 ng/ml EGF
Description: as §4, §5

bbc3 gene promoter = bbc3 gene promoter luciferase reporter assay (pGL3/0.9) in HeLa/Bcl-xL cells; format: cell-based, human; conditions: pGL3/0.9, no serum, 100 ng/ml IGF-1, 24 hrs
Description: The pGL3/0.9 bbc3 gene promoter luciferase reporter plasmid was transfected into HeLa-Bcl-xL cells. At 24 hrs after transfection, cells were incubated for an additional 24 hrs in the presence of 20% serum (+) with or without 50 μM LY294002, or in the absence of serum (−) with or without 100 ng/ml IGF-1. Luciferase activity was measured and normalized for transfection efficiency (β-galactosidase).
Additional experiments were performed to determine whether the bbc3 gene promoter was regulated by signal transduction pathways known to play a role in cell survival. A bbc3 gene promoter-luciferase reporter construct containing 0.9 kb of the bbc3 gene promoter region, was transfected into HeLa/Bcl-xL cells and the activity of the promoter measured by luciferase assays 48 hours after transfection. […] Thus, a PI-3 kinase dependent pathway controls, at least in part, the activity of the bbc3 gene promoter. […]
Luciferase assays were performed using the Dual-Light System (Tropix) for the combined detection of luciferase and β-galactosidase. […] Luciferase and β-galactosidase activities were measured 24 hours following transfection. […] Cell culture medium was changed to either DMEM containing 20% serum, or DMEM without serum, 24 hours following transfection and luciferase/β-galactosidase levels were measured after an additional 24 hours of incubation. […]

bbc3 mRNA [5] = assay: Northern blot of bbc3 mRNA in M1p53ts cells after temperature shift; format: cell-based, murine; conditions: M1p53ts cells shifted to 32° C. for 6 hours in the presence of IL-6
Text: as §1
(Yonish-Rouach, E., et al., Nature 352:345–7 (1991)). […] (FIG. 3C). […] (FIG. 3C).
as §2, §3

In the case of 4-hydroxytamoxifen [4-OHT], the “bbc3 mRNA levels” value (bbc3 mRNA [1]) is reported as “sufficient to induce bbc3 mRNA levels”.
In the case of COc1cc2ncnc(Nc3cccc(Cl)c3)c2cc1OC [AG1478], the “ability of serum to suppress Bbc3 protein levels” value (shortened to “ability of serum”) (Bbc3 protein [2]) is reported as “blocked the ability of EGF and serum to suppress Bbc3 protein expression” and the “ability of EGF to suppress Bbc3 protein expression” value (Bbc3 protein [2]; serum-starved HT29 cells, 50 ng/ml EGF + 30 nM AG1478, 24 hrs) is reported as “blocked the ability of EGF and serum to suppress Bbc3 protein expression”.
For COc1cccc(-c2cc(=O)c3ccccc3o2)c1N [PD98059], the “ability of serum” value (Bbc3 protein [2]) was “impaired the ability of serum to suppress Bbc3 protein expression”.
With COc1cc([C@@H]2c3cc4c(cc3[C@@H](O[C@@H]3O[C@@H]5CO[C@@H](C)O[C@H]5[C@H](O)[C@H]3O)[C@H]3COC(=O)[C@H]23)OCO4)cc(OC)c1O [etoposide] the “bbc3 mRNA levels” value (bbc3 mRNA [3]) was “rapid induction of bbc3 mRNA levels”.
With CC(C)(C)c1cc(C=C(C#N)C#N)cc(Br)c1O [tyrphostin AG1024] the “ability of serum” value (Bbc3 protein [2]) was “impaired the ability of serum to suppress Bbc3 protein expression”.
With CC(NC(=O)C(NC(=O)OCc1ccccc1)C(C)C)C(=O)NC(CC(=O)O)C(=O)CF (stereo not drawn) [z-VAD] (Cbz-Val-Ala-Asp-CH2F; configuration not given here) the “induction of Bbc3 protein levels by serum deprivation” value (Bbc3 protein [4]) was “no impact on the induction of Bbc3 protein levels” and the “cleavage of the caspase substrate PARP” value (PARP) was “prevented cleavage of the caspase substrate, PARP”.
For “Bbc3 BH3 peptide: 20 amino acid synthetic peptide encompassing the Bbc3 BH3 domain (residues 133 to 152) (WAREIGAQLRRMADDLNAQY)”, the “binding affinity to recombinant GST-Bcl-xL in vitro” value (GST-Bcl-xL) was “affinity comparable to a previously characterized Bak BH3 peptide”.
“EGF: growth factor with broad anti-apoptotic activity (NSDSECPLSHDGYCLHDGVCMYIEALDKYACNCVVGYIGERCQYRDLKWWELR; UniProt P01133 971-1023, looked up)” was tested, and the Bax protein level (Bax) was “no effect”, the Bcl-xL protein level (Bcl-xL) was “no effect” and the Bbc3 protein expression (Bbc3 protein [2]; serum-starved HT29 cells) was “strongly inhibited Bbc3 protein expression”.
In the case of “IGF-1: growth factor with broad anti-apoptotic activity”, the Bax protein level (Bax) is reported as “no effect”, the “induction of bbc3 gene promoter activity (luciferase) in the absence of serum” value (bbc3 gene promoter) is reported as “substantially reduced” and the Bcl-xL protein level (Bcl-xL) is reported as “no effect”. For the same compound, the Bbc3 protein expression (Bbc3 protein [2]; serum-starved HT29 cells) was “strongly inhibited Bbc3 protein expression”.
In the case of “IL-6: IL-6, which suppresses apoptosis induced by p53 in M1 cells”, the “induction of bbc3 mRNA by wild-type p53” value (bbc3 mRNA [5]) is reported as “did not prevent induction of bbc3 mRNA”.
For PDGF, the Bbc3 protein expression (Bbc3 protein [2]; serum-starved HT29 cells) was “failed to suppress Bbc3 levels”.
